From patent US20050170359A1, “Treatment of vascular dysfunction and alzheimer's disease” (priority 2002, published 2005)
“Also recorded” adds a separate entry of the source. Peptide text beside a SMILES is read from it. * marks the point of attachment. Cbz = O=C(OCc1ccccc1)*; CH2F = FC*

Assays:
[1] = system: BEC; test: H2O2 model of stress-induced premature senescence in young human BEC; assay type: cell-based
Method: Subconfluent BEC cultures (34 days after subculture) were treated with H2O2 by adding it to the culture medium for 2 hr. To induce senescence, sublethal doses of H2O2 were determined and selected. After treatment, cells were washed with PBS (37° C.) before harvesting, subculturing or incubating with a fresh medium or 3-D collagen gels. H2O2-treated cells were subcultured and analyzed after 1, 2, 3, 4, 5, 6, 24, 48, 72, 96 and 120 hr for expression of different proteins involved in the cell cycle regulation and apoptosis. Cells in 60 mm dishes were lysed in SDS sample buffer directly. For Western blot analysis, proteins were separated by SDS-PAGE and transferred to PVDF membrane followed by incubation with different primary antibodies (see antibodies for.Western blot analysis). SIPS BEC were also prepared for microarray analysis on U95A chips as described above.

[2] = system: SIPS BEC; test: Capillary morphogenesis in 3-D collagen gels by H2O2 stress-induced premature senescence (SIPS) BEC; assay type: cell-based, human
Method: The 3-D system has been described in detail by Davis et al. (J. Cell Sci. 114:917-930, 2001). Here, the system was used to assay the responsiveness of AD BEC and SIPS BEC to angiogenic stimulation. Briefly, 10^6 MBEC/ml were suspended within 3-D collagen matrices at 25 μl per well in the serum-free culture medium 199 containing VEGF (40 ng/ml) and bFGF (40 ng/ml) in 5% CO2 at 37° C. The cells were fixed with 3% glutaraldehyde in phosphate buffered saline. The sections were stained with hematoxylin/eosin and Hoechst 33342. The formation of intracellular vacuoles (stage I), tubules (stage II), and multicellular tubes and networks (stage III) were determined at 4 hr to 16 hr and 24 hr, respectively. The number of apoptotic cells were determined between 4 hr and 24 hr using double TUNEL/Hoechst staining. At least 200 cells were evaluated from an individual well. […] was quantified at 200 X magnification by counting four fields derived from triplicate wells. Subconfluent BEC cultures (34 days after subculture) were treated with H2O2 by adding it to the culture medium for 2 hr. To induce senescence, sublethal doses of H2O2 were determined and selected. […] H2O2-treated cells were subcultured and analyzed after 1, 2, 3, 4, 5, 6, 24, 48, 72, 96 and 120 hr for expression of different proteins involved in the cell cycle regulation and apoptosis. […]

[3] = system: AMC BEC; test: Tube formation in 2-D collagen matrigels, age-matched control BEC; assay type: cell-based, human; details: 10 μM
Method: In 3D collagen gels (as described in FIG. 1), BEC that reached greater than 90% replicative senescence (RS) or were exposed to H2O2 (SIPS) formed an insignificant number of tubes (FIGS. 11A-11B, bar=50 μm). Total tube length—control BEC (arbitrarily taken as 100%) were compared to RS and SIPS BEC (FIG. 11C). The effect of SB202190 (SB, 10 μM for 1 hr) on SIPS-induced aberrant angiogenesis. Mean±s.e., n=9 assays per group from three different cases/group. In 2D collagen matrigels (growth factors per BD Biosciences, Bedford, Mass.), SB202190 (SB, 10 μM) increased the number of tubes in early passage AD BEC (FIGS. 11D-11E, bar=50 μm). SB202190 (SB, 10 μM) increases total tube length in both AMC and AD BEC (FIG. 11F). Mean±s.e., n=6-9 assays per group from two AMC and three AD cases.
In the 2-D system, collagen matrigels of matrix composition containing a supplement of growth factors were used according to manufacturer's instructions (BD Biosciences, Bedford, Mass.). In the 2-D matrix system, 2×10^4 cells/well were plated.
(§1) ZVAD-fmk (50 μM, Sigma), p38 MAPK antagonists including SB SB202190 (SB, 10 μM), and plasma-derived activated protein C (APC, prepared by Dr. J. H. Griffin's laboratory, 5-100 nM) were used.

[4] = system: AD BEC; test: Tube formation in 2-D collagen matrigels, AD BEC; assay type: cell-based, human; details: 10 μM
Method: AD or age-matched control (AMC) BEC (2×10^4 cells/well) were plated in 2-D collagen matrigels (growth factors per BD Biosciences, Bedford, Mass.) and treated with 100 nM APC or vehicle (−APC). Total tube length was determined at 24 hr (FIG. 6A). Mean±s.e., n=30 to 40 assays per group from four AD and three AMC cases. AD or AMC BEC were treated with 100 nM APC, 100 nM boiled (B) APC, 100 nM serine mutant (M) APC, or vehicle (−APC) for 24 hr. Total tube length was determined at 24 hr (FIG. 6B). Mean±s.e., n=10 assays per group from one AD and one AMC case. % TUNEL-positive BEC at 4 hr during AD-mediated or AMC-mediated capillary morphogenesis in the presence of 100 nM APC or vehicle (−APC) was calculated (FIG. 6C). Mean±s.e., n=20 assays per group from two AD and two AMC cases. % Caspase-3-positive BEC at 4 hr of brain capillary morphogenesis in AD or AMC treated with 100 nM APC or vehicle (−APC) was calculated (FIG. 6D). Mean±s.e., n=20 assays per group from two AD and two AMC cases. AD BEC (3×10^4) cells were assayed for migration in a modified Boyden chamber in the presence of vehicle (−APC), 100 nM APC, anti-APC C3 monoclonal antibody (200 μg/ml), or anti-APC+APC after 6 hr of incubation (FIG. 6E). Mean±s.e., n=6 assays per group from two AD cases. […]

[5] = system: AD BEC; test: Apoptosis (TUNEL, caspase-3 positive cells) during AD BEC-mediated capillary morphogenesis; assay type: cell-based, human
Method: (§2) The 3-D system has been described in detail by Davis et al. (J. Cell Sci. 114:917-930, 2001). Here, the system was used to assay the responsiveness of AD BEC and SIPS BEC to angiogenic stimulation. Briefly, 10^6 MBEC/ml were suspended within 3-D collagen matrices at 25 μl per well in the serum-free culture medium 199 containing VEGF (40 ng/ml) and bFGF (40 ng/ml) in 5% CO2 at 37° C. The cells were fixed with 3% glutaraldehyde in phosphate buffered saline. The sections were stained with hematoxylin/eosin and Hoechst 33342. The formation of intracellular vacuoles (stage I), tubules (stage II), and multicellular tubes and networks (stage III) were determined at 4 hr to 16 hr and 24 hr, respectively. The number of apoptotic cells were determined between 4 hr and 24 hr using double TUNEL/Hoechst staining. At least 200 cells were evaluated from an individual well. […] was quantified at 200 X magnification by counting four fields derived from triplicate wells.
Staining with APO-BRDU kit was performed according to manufacturer's instructions (Phoenix Flow Systems).

[6] = system: AD BEC; test: Brain capillary morphogenesis in 3-D collagen matrices (VEGF/bFGF) mediated by AD BEC; assay type: cell-based, human; details: zVAD-fmk 50 μM, 24 hr, VEGF and bFGF 40 ng/ml
Method: as §2, §1

[7] = system: caspase 3; test: Western blot of activated caspase-3 in AD BEC lysates during capillary morphogenesis; assay type: cell-based, human; details: zVAD-fmk 50 μM, 24 hr
Method: Cell lysates were prepared from subconfluent BEC cultures, BEC at different stages of capillary morphogenesis or BEC exposed to SIPS (see below H2O2 model of SIPS). Antibodies for Western blot analysis included caspase 3, rabbit anti-human polyclonal, 1:100 (0.5 mg/ml, BD PharMingen); p53, mouse anti-human monoclonal, 1:200 (0.1 mg/ml, Oncogene); p16, mouse anti-human monoclonal, 1:250 (0.5 mg/ml, BD ParMingen); p21, mouse anti-human, 1:200 (0.4 mg/ml, Oncogene); Rb (Santa Cruz), p27 (Santa Cruz), fibronectin (Santa Cruz), PAI-1 (Santa Cruz) or phosphorylated p38 MAPK; gax, rabbit polyclonal against C-terminal region of the rat gax protein (amino acids SDHSSEHAHL), 1:500 (7 mg/ml, provided by Dr Kenneth Walsh); and β-actin, goat anti-human polyclonal, 1:2,500 (0.2 mg/ml, Santa Cruz Biotechnology). The secondary antibody was HRP-conjugated and peroxidase activity was detected with enhanced chemiluminescence detection kit (ECL, Pierce). The relative abundance of the primary antigen was determined by scanning densitometry using β-actin as an internal control.

## OO [H2O2]
[1]; 300 μM for 2 hr, within 48 hr
  senescent phenotype (G1 arrest, flattened morphology, SA-β-gal): developed a senescent phenotype
[1]; concentrations higher than 300 μM, not shown
  BEC apoptosis: resulted in BEC apoptosis
[2]; compared to untreated normal control cells
  number of tubes formed by H2O2-treated (SIPS) BEC: form an insignificant number of tubes

## Oc1ccc(-c2nc(-c3ccncc3)c(-c3ccc(F)cc3)[nH]2)cc1 [SB202190]
[3]
  total tube length, AMC BEC: increases
[4]
  number of tubes in early passage AD BEC: completely restored; also recorded: increased
  total tube length, AD BEC: increases
[2]; preincubation 10 μM for 1 hr, 3D collagen gels
  augmentation of total tube length in the SIPS model: ~5 fold

## COC(=O)C[C@H](NC(=O)[C@H](C)NC(=O)[C@@H](NC(=O)OCc1ccccc1)C(C)C)C(=O)CF [zVAD-fmk] (Cbz-Val-Ala-Asp(OMe)-CH2F)
[5]; during AD BEC-mediated capillary morphogenesis
  apoptosis in AD BEC: prevents apoptosis
[5]; zVAD, data not shown
  number of apoptotic AD BEC by TUNEL staining: decreased
[6]
  number of tubes: restored
  total tube length: restored
[6]; listed as zVAD
  number of tubes: restoration
  total tube length: restoration
[7]
  levels of activated form of caspase-3: preventing the formation of the active form of caspase 3; also recorded: reduced
